# Patent US9006250B2, “4-amino-6-(heterocyclic)picolinates and 6-amino-2-(heterocyclic)pyrimidine-4-carboxylates and their use as herbicides” (Dow AgroSciences, LLC, priority 2013, dated 2015)
# Assays:
# Assay in all cases: Post-Emergent Test II herbicidal activity
# Format in all cases: in vivo
# [1] = system: ABUTH: velvetleaf (Abutilon theophrasti); conditions: post-emergence, 336 h, 14 days, read-out: Visual Growth Reduction (%) 14 Days After Application ABUTH; for pest or weed control at 35 g/ha: 35 g ai/ha; for pest or weed control at 70 g/ha: 70 g ai/ha; for pest or weed control at 140 g/ha: 140 g ai/ha
# Description: (§1) Post-Emergent Test II: Seeds or nutlets of the desired test plant species were planted in Sun Gro Metro-Mix® 360 planting mixture, which typically has a pH of 6.0 to 6.8 and an organic matter content of about 30 percent, in plastic pots with a surface area of 64 square centimeters. When required to ensure good germination and healthy plants, a fungicide treatment and/or other chemical or physical treatment was applied. The plants were grown for 7-21 d in a greenhouse with an approximate 15 h photoperiod which was maintained at about 23-29° C. during the day and 22-28° C. during the night. Nutrients and water were added on a regular basis and supplemental lighting was provided with overhead metal halide 1000-Watt lamps as necessary. The plants were employed for testing when they reached the first or second true leaf stage.
# (§2) A weighed amount, determined by the highest rate to be tested, of each test compound was placed in a 25 mL glass vial and was dissolved in 4 mL of a 97:3 v/v mixture of acetone and DMSO to obtain concentrated stock solutions. […] The concentrated stock solutions obtained were diluted with 20 mL of an aqueous mixture containing acetone, water, isopropyl alcohol, DMSO, Atplus 411F crop oil concentrate, and Triton® X-155 surfactant in a 48.5:39:10:1.5:1.0:0.02 v/v ratio to obtain spray solutions containing the highest application rates. Additional application rates were obtained by serial dilution of 12 mL of the high rate solution into a solution containing 2 mL of 97:3 v/v mixture of acetone and DMSO and 10 mL of an aqueous mixture containing acetone, water, isopropyl alcohol, DMSO, Atplus 411F crop oil concentrate, and Triton X®-155 surfactant in a 48.5:39:10:1.5:1.0:0.02 v/v ratio to obtain ½×, ¼×, ⅛× and 1/16× rates of the high rate. Compound requirements are based upon a 12 mL application volume at a rate of 187 liters per hectare (L/ha). Formulated compounds were applied to the plant material with an overhead Mandel track sprayer equipped with 8002E nozzles calibrated to deliver 187 L/ha over an application area of 0.503 square meters at a spray height of 18 inches […] above the average plant canopy height. Control plants were sprayed in the same manner with the solvent blank.
# (§3) The treated plants and control plants were placed in a greenhouse as described above and watered by subirrigation to prevent wash-off of the test compounds. After 14 d, the condition of the test plants as compared with that of the untreated plants was determined visually and scored on a scale of 0 to 100 percent where 0 corresponds to no injury and 100 corresponds to complete kill.
# [2] = system: AMARE: redroot pigweed (Amaranthus retroflexus); conditions: post-emergence, 336 h, 14 days, read-out: Visual Growth Reduction (%) 14 Days After Application AMARE; for pest or weed control at 35 g/ha: 35 g ai/ha; for pest or weed control at 70 g/ha: 70 g ai/ha; for pest or weed control at 140 g/ha: 140 g ai/ha
# Description: as §1, §2, §3
# [3] = system: BRSNN: oilseed rape, canola (Brassica napus); conditions: post-emergence, 336 h, 14 days, read-out: Visual Growth Reduction (%) 14 Days After Application BRSNN; for pest or weed control at 35 g/ha: 35 g ai/ha; for pest or weed control at 70 g/ha: 70 g ai/ha; for pest or weed control at 140 g/ha: 140 g ai/ha
# Description: as §1, §2, §3
# [4] = system: CHEAL: lambsquarters (Chenopodium album); conditions: post-emergence, 336 h, 14 days, read-out: Visual Growth Reduction (%) 14 Days After Application CHEAL; for pest or weed control at 35 g/ha: 35 g ai/ha; for pest or weed control at 70 g/ha: 70 g ai/ha; for pest or weed control at 140 g/ha: 140 g ai/ha
# Description: as §1, §2, §3
# [5] = system: CYPES: yellow nutsedge (Cyperus esculentus); conditions: post-emergence, 336 h, 14 days, read-out: Visual Growth Reduction (%) 14 Days After Application CYPES; for pest or weed control at 35 g/ha: 35 g ai/ha; for pest or weed control at 70 g/ha: 70 g ai/ha; for pest or weed control at 140 g/ha: 140 g ai/ha
# Description: as §1, §2, §3
# [6] = system: ECHCG: barnyardgrass (Echinochloa crus-galli); conditions: post-emergence, 336 h, 14 days, read-out: Visual Growth Reduction (%) 14 Days After Application ECHCG; for pest or weed control at 35 g/ha: 35 g ai/ha; for pest or weed control at 70 g/ha: 70 g ai/ha; for pest or weed control at 140 g/ha: 140 g ai/ha
# Description: as §1, §2, §3
# [7] = system: EPHHL: wild poinsettia (Euphorbia heterophylla); conditions: post-emergence, 336 h, 14 days, read-out: Visual Growth Reduction (%) 14 Days After Application EPHHL; for pest or weed control at 35 g/ha: 35 g ai/ha; for pest or weed control at 70 g/ha: 70 g ai/ha; for pest or weed control at 140 g/ha: 140 g ai/ha
# Description: as §1, §2, §3
# [8] = system: HELAN: sunflower (Helianthus annuus); conditions: post-emergence, 336 h, 14 days, read-out: Visual Growth Reduction (%) 14 Days After Application HELAN; for pest or weed control at 35 g/ha: 35 g ai/ha; for pest or weed control at 70 g/ha: 70 g ai/ha; for pest or weed control at 140 g/ha: 140 g ai/ha
# Description: as §1, §2, §3
# [9] = system: ORYSA: rice (Oryza sativa); conditions: post-emergence, 336 h, 14 days, read-out: Visual Growth Reduction (%) 14 Days After Application ORYSA; for pest or weed control at 35 g/ha: 35 g ai/ha; for pest or weed control at 70 g/ha: 70 g ai/ha; for pest or weed control at 140 g/ha: 140 g ai/ha
# Description: as §1, §2, §3
# [10] = system: SETFA: giant foxtail (Setaria faberi); conditions: post-emergence, 336 h, 14 days, read-out: Visual Growth Reduction (%) 14 Days After Application SETFA; for pest or weed control at 35 g/ha: 35 g ai/ha; for pest or weed control at 70 g/ha: 70 g ai/ha; for pest or weed control at 140 g/ha: 140 g ai/ha
# Description: as §1, §2, §3
# [11] = system: TRZAS: wheat, spring (Triticum aestivum); conditions: post-emergence, 336 h, 14 days, read-out: Visual Growth Reduction (%) 14 Days After Application TRZAS; for pest or weed control at 35 g/ha: 35 g ai/ha; for pest or weed control at 70 g/ha: 70 g ai/ha; for pest or weed control at 140 g/ha: 140 g ai/ha
# Description: as §1, §2, §3
# [12] = system: ZEAMX: maize, corn (Zea mays); conditions: post-emergence, 336 h, 14 days, read-out: Visual Growth Reduction (%) 14 Days After Application ZEAMX; for pest or weed control at 35 g/ha: 35 g ai/ha; for pest or weed control at 70 g/ha: 70 g ai/ha; for pest or weed control at 140 g/ha: 140 g ai/ha
# Description: as §1, §2, §3
Compound,pest or weed control at 35 g/ha [1] [%],pest or weed control at 70 g/ha [1] [%],pest or weed control at 140 g/ha [1] [%],pest or weed control at 35 g/ha [2] [%],pest or weed control at 70 g/ha [2] [%],pest or weed control at 140 g/ha [2] [%],pest or weed control at 35 g/ha [3] [%],pest or weed control at 70 g/ha [3] [%],pest or weed control at 140 g/ha [3] [%],pest or weed control at 35 g/ha [4] [%],pest or weed control at 70 g/ha [4] [%],pest or weed control at 140 g/ha [4] [%],pest or weed control at 35 g/ha [5] [%],pest or weed control at 70 g/ha [5] [%],pest or weed control at 140 g/ha [5] [%],pest or weed control at 35 g/ha [6] [%],pest or weed control at 70 g/ha [6] [%],pest or weed control at 140 g/ha [6] [%],pest or weed control at 35 g/ha [7] [%],pest or weed control at 70 g/ha [7] [%],other results
COC(=O)c1nc(-c2ccc3nsnc3c2F)cc(N)c1Cl [Compound 14],0 to 29,0 to 29,0 to 29,30 to 44,30 to 44,45 to 59,0 to 29,0 to 29,0 to 29,45 to 59,60 to 74,75 to 84,0 to 29,0 to 29,0 to 29,0 to 29,0 to 29,0 to 29,60 to 74,85 to 94,pest or weed control at 140 g/ha [7]: 95 to 100%; pest or weed control at 35 g/ha [8]: 0 to 29%; pest or weed control at 70 g/ha [8]: 0 to 29%; pest or weed control at 140 g/ha [8]: 30 to 44%; pest or weed control at 35 g/ha [9]: 0 to 29%; pest or weed control at 70 g/ha [9]: 0 to 29%; pest or weed control at 140 g/ha [9]: 0 to 29%; pest or weed control at 35 g/ha [10]: 0 to 29%; pest or weed control at 70 g/ha [10]: 0 to 29%; pest or weed control at 140 g/ha [10]: 0 to 29%; pest or weed control at 35 g/ha [11]: 0 to 29%; pest or weed control at 70 g/ha [11]: 0 to 29%; pest or weed control at 140 g/ha [11]: 0 to 29%; pest or weed control at 35 g/ha [12]: 0 to 29%; pest or weed control at 70 g/ha [12]: 0 to 29%; pest or weed control at 140 g/ha [12]: 0 to 29%
COC(=O)c1nc(-c2ccc3nonc3c2Cl)cc(N)c1Cl [Compound 18],0 to 29,0 to 29,0 to 29,95 to 100,95 to 100,95 to 100,60 to 74,75 to 84,75 to 84,75 to 84,85 to 94,95 to 100,0 to 29,0 to 29,30 to 44,0 to 29,0 to 29,30 to 44,0 to 29,0 to 29,pest or weed control at 140 g/ha [7]: 30 to 44%; pest or weed control at 35 g/ha [8]: 0 to 29%; pest or weed control at 70 g/ha [8]: 30 to 44%; pest or weed control at 140 g/ha [8]: 60 to 74%; pest or weed control at 35 g/ha [9]: 0 to 29%; pest or weed control at 70 g/ha [9]: 0 to 29%; pest or weed control at 140 g/ha [9]: 0 to 29%; pest or weed control at 35 g/ha [10]: 0 to 29%; pest or weed control at 70 g/ha [10]: 0 to 29%; pest or weed control at 140 g/ha [10]: 0 to 29%; pest or weed control at 35 g/ha [11]: 0 to 29%; pest or weed control at 70 g/ha [11]: 0 to 29%; pest or weed control at 140 g/ha [11]: 0 to 29%; pest or weed control at 35 g/ha [12]: 0 to 29%; pest or weed control at 70 g/ha [12]: 0 to 29%; pest or weed control at 140 g/ha [12]: 0 to 29%
